Measured values as given in article PMC6384650, “Phenolic Compounds of Catalpa speciosa, Taxus cuspidata, and Magnolia acuminata have Antioxidant and Anticancer Activity” (Molecules, 2019).
Converted amounts (≈) assume the structure as drawn. Where a name gives a salt, the structure may show the parent alone.

Experiments:
[1] = DPPH free radical scavenging assay; details: 30 min incubation, absorbance 517 nm
Protocol: (§1) The DPPH and β-carotene-linoleic acid assays were used in the Faculty of Food and Agricultural Sciences, King Saud University to determine the antioxidant activities of bark extract. For the DPPH assay, the samples were incubated for 30 min and the absorbance of the samples at 517 nm was measured. In the β-carotene-linoleic acid assay, the absorbance of the samples at 470 nm was measured. […] A standard antioxidant (butylated hydroxytoluene, BHT) was used as a positive control and the inhibition by the concentration of each sample was compared with that of the BHT and blank. The antioxidant activities were repeated twice in duplicates.

[2] = β-carotene-linoleic acid assay; details: absorbance 470 nm
Protocol: as §1

[3] = test system: HeLa cells (cervical adenocarcinoma); assay: MTT antiproliferative assay, HeLa; type: cell-based; details: 2 days incubation; for IC50: Homo sapiens, HeLa, 48 h, read-out: In vitro antiproliferative activity IC50, HeLa
Protocol: (§2) Fresh bark (0.25 g) was dried at 35 °C until a constant weight was obtained. The samples were ground and then dissolved in 3 mL methanol (99%) for 1 h in the dark at 25 °C. Bark solutions were centrifuged for 5 min at 10,000 rpm (7000 × g) and the supernatant was obtained (~2.7 mL). The samples were passed through a 0.45 μm polytetrafluroethylene (PTFE) nylon filter and then stored at −80 °C. Analytical grade chemicals (Sigma Aldrich, Germany) were used in the bioassays. The cancer cell lines, including cervical adenocarcinoma (HeLa), breast adenocarcinoma (MCF-7), T-cell lymphoblast like (Jurkat), urinary bladder carcinoma (T24), and colon adenocarcinoma (HT-29), were obtained from the American Type Culture Collection (ATCC).
(§3) The antiproliferative activity of bark extracts was examined in different cancer cells lines (HeLa, MCF-7, Jurkat, HT-29, and T24) and in normal cells (HEK-293) by using a modified 3-(4,5-dimethylthiazol-2-yl)-2,5-diphenyltetrazolium bromide (MTT) method. The cells were grown in 75 cm^2 flasks in MEM supplemented with 10% FBS, 17.8 mM NaHCO3, 0.1 mM non-essential amino acids, and 1 mM sodium pyruvate. They were seeded into 96-well plates at a density of 4 × 10^−4 per well, left to stand in 270 µL of medium, and incubated in an atmosphere of 37 °C and 5% CO2. Sterilin-filtered leaf extracts were added to the culture media in microtiter plates. Five doses of bark extracts were used at final concentrations of 50, 100, 200, 300, and 400 µg/mL in culture medium. Untreated cells were considered used as negative controls and vinblastine sulfate and taxol treatment were used as the positive controls. After incubation of the culture medium for 2 days at 37 °C and 5% CO2, phosphate buffer saline (PBS) washes were performed to remove extract traces and the medium supplied was 12 mM MTT dissolved in PBS. Subsequently, 0.04 N HCl dissolved in isopropanol was mixed in each well, left to stand for 40 min, and the absorbance at 570 nm was determined by using a microplate reader (Thermo Fisher Scientific, Waltham, Massachusetts, USA). The percentage inhibition of antiproliferation activity was calculated in triplicate:
(§4) % Inhibition = (Abs.570 nm control—Abs.570 nm sample)/Abs.570 nm control × 100. Subsequently, IC50 values were obtained by plotting the percentage of cell viability against the extract concentration and expressed in µg/mL.

[4] = test system: MCF-7 cells (breast adenocarcinoma); assay: MTT antiproliferative assay, MCF-7; type: cell-based; details: 2 days incubation; for IC50: Homo sapiens, MCF7, 48 h, read-out: In vitro antiproliferative activity IC50, MCF-7
Protocol: as §2, §3, §4

[5] = test system: Jurkat cells (T-cell lymphoblast like); assay: MTT antiproliferative assay, Jurkat; type: cell-based; details: 2 days incubation; for IC50: Homo sapiens, Jurkat, 48 h, read-out: In vitro antiproliferative activity IC50, Jurkat
Protocol: as §2, §3, §4

[6] = test system: T24 cells (urinary bladder carcinoma); assay: MTT antiproliferative assay, T24; type: cell-based; details: 2 days incubation; for IC50: Homo sapiens, T-24, 48 h, read-out: In vitro antiproliferative activity IC50, T24
Protocol: as §2, §3, §4

[7] = test system: HT-29 cells (colon adenocarcinoma); assay: MTT antiproliferative assay, HT-29; type: cell-based; details: 2 days incubation; for IC50: Homo sapiens, HT-29, 48 h, read-out: In vitro antiproliferative activity IC50, HT-29
Protocol: as §2, §3, §4

HEK-293 cells = assay: MTT antiproliferative assay, normal HEK-293 cells; type: cell-based; details: 2 days incubation; for IC50: Homo sapiens, HEK293, 48 h, read-out: In vitro antiproliferative activity IC50, HEK-293
Protocol: as §3, §4

[8] = test system: MCF-7, HeLa, Jurkat, T24, and HT-29 cells; assay: MTT antiproliferative assay, cancer cell line panel; type: cell-based; details: most cancer cells
Protocol: The samples were ground and then dissolved in 3 mL methanol (99%) for 1 h in the dark at 25 °C. Bark solutions were centrifuged for 5 min at 10,000 rpm (7000 × g) and the supernatant was obtained (~2.7 mL). The samples were passed through a 0.45 μm polytetrafluroethylene (PTFE) nylon filter and then stored at −80 °C. Analytical grade chemicals (Sigma Aldrich, Germany) were used in the bioassays. The cancer cell lines, including cervical adenocarcinoma (HeLa), breast adenocarcinoma (MCF-7), T-cell lymphoblast like (Jurkat), urinary bladder carcinoma (T24), and colon adenocarcinoma (HT-29), were obtained from the American Type Culture Collection (ATCC). […] The cells were grown in 75 cm^2 flasks in MEM supplemented with 10% FBS, 17.8 mM NaHCO3, 0.1 mM non-essential amino acids, and 1 mM sodium pyruvate. […] Sterilin-filtered leaf extracts were added to the culture media in microtiter plates. […] Untreated cells were considered used as negative controls and vinblastine sulfate and taxol treatment were used as the positive controls. After incubation of the culture medium for 2 days at 37 °C and 5% CO2, phosphate buffer saline (PBS) washes were performed to remove extract traces and the medium supplied was 12 mM MTT dissolved in PBS. Subsequently, 0.04 N HCl dissolved in isopropanol was mixed in each well, left to stand for 40 min, and the absorbance at 570 nm was determined by using a microplate reader (Thermo Fisher Scientific, Waltham, Massachusetts, USA). The percentage inhibition of antiproliferation activity was calculated in triplicate: % Inhibition = (Abs.570 nm control—Abs.570 nm sample)/Abs.570 nm control × 100. Subsequently, IC50 values were obtained by plotting the percentage of cell viability against the extract concentration and expressed in µg/mL.

cancer cells = assay: Apoptotic cell population by flow cytometry (Annexin V); type: cell-based; details: treatment at IC50, 24/48 h, versus untreated control
Protocol: Flow cytometry (FAC Scan, Becton Dickinson, Iowa, USA) was used to measure the apoptotic cell population. […] The cells were detached by using trypsin (0.25%) in Hank’s balanced salt solution (Thermo Fisher Scientific, Berlin, Germany). For staining the cells, the Annexin V apoptosis detection kit (Sigma, St. Louis, MO, USA) was used. Briefly, the cells were incubated in the dark at 37 °C for 15 min and washed with cold PBS, and the apoptotic populations were shown by the flow cytometer in quadrants: Lower left (viable cells), upper left (necrotic cells), lower right (early apoptotic cells), and upper right (late apoptotic cells).

Which “DPPH Free Radical Scavenging Activity (IC50)” value [1] does the source give for `Cc1cc(C(C)(C)C)c(O)c(C(C)(C)C)c1` [BHT, butylated hydroxytoluene] here?
Its value is 2.9 ± 0.1c µg mL^−1.

And the “β-Carotene-Linoleic Acid Assay (IC50)” value [2]?
The value was 3.2 ± 0.1c µg mL^−1.

With `O.Oc1cc(O)c2c(c1)O[C@H](c1ccc(O)c(O)c1)[C@@H](O)C2` [Catechin] as the compound, how does the “In vitro antiproliferative activity IC50, HeLa” value [3] read?
The value was 36.48 ± 1.2 µg/mL.

And the “In vitro antiproliferative activity IC50, MCF-7” value [4]?
Its value is 17.64 ± 1.8 µg/mL.

And the “In vitro antiproliferative activity IC50, Jurkat” value [5]?
The value was 38.16 ± 0.7 µg/mL.

What about the “In vitro antiproliferative activity IC50, T24” value [6] of the same compound?
The value was 183.28 ± 4.3 µg/mL.

What about the “In vitro antiproliferative activity IC50, HT-29” value [7] of the same compound?
Its value is 96.16 ± 1.5 µg/mL.

What about the “In vitro antiproliferative activity IC50, HEK-293” value (HEK-293 cells) of the same compound?
Its value is “˃400 µg/mL”.

And the “Antiproliferative activity against cancer cells (in words)” value (“Antiproliferative activity … (in words)” for short) [8]?
Its value is “notable antiproliferative activity against most cancer cells”.

And the “Accumulation of necrotic, early and late apoptotic cells” value (cancer cells)?
The value was “high accumulation of early and late apoptotic cells”.

Which “In vitro antiproliferative activity IC50, HeLa” value [3] does the source give for `COc1cc(/C=C/C(=O)O)ccc1O` [Ferulic acid] here?
The value was 51.73 ± 3.5 µg/mL.

And the “In vitro antiproliferative activity IC50, MCF-7” value [4]?
The value was 43.85 ± 1.3 µg/mL.

And the “In vitro antiproliferative activity IC50, Jurkat” value [5]?
The value was 39.11 ± 2.3 µg/mL.

And the “In vitro antiproliferative activity IC50, T24” value [6]?
Its value is 227.26 ± 5.1 µg/mL.

And the “In vitro antiproliferative activity IC50, HT-29” value [7]?
The value was 126.26 ± 4.4 µg/mL.

What about the “In vitro antiproliferative activity IC50, HEK-293” value (HEK-293 cells) of the same compound?
Its value is “˃400 µg/mL”.

What about the “Antiproliferative activity … (in words)” value [8] of the same compound?
Its value is “notable antiproliferative activity against most cancer cells”.

What does the source list for `O=C(O)c1ccc(O)c(O)c1` [Protocatechuic acid, 3,4-dihydroxybenzoic acid]?
IC50 [3]: 39.1 ± 2.3 µg/mL (≈ 254 µM); IC50 [4]: 19 ± 2.1 µg/mL (≈ 123 µM); IC50 [5]: 47.4 ± 2.1 µg/mL (≈ 307 µM); IC50 [6]: 176 ± 2.1 µg/mL (≈ 1140 µM); IC50 [7]: 95.3 ± 3.3 µg/mL (≈ 619 µM); IC50 (HEK-293 cells): > 400 µg/mL; Antiproliferative activity against cancer cells (in words) [8]: notable antiproliferative activity against most cancer cells

With `CC(=O)O[C@H]1C(=O)[C@@]2(C)[C@H]([C@H](OC(=O)c3ccccc3)[C@]3(O)C[C@H](OC(=O)[C@H](O)[C@@H](NC(=O)c4ccccc4)c4ccccc4)C(C)=C1C3(C)C)[C@]1(OC(C)=O)CO[C@@H]1C[C@@H]2O` [Taxol] as the compound, how does the IC50 [4] read?
The IC50 was 0.09 ± 0.009 µg/mL (≈ 0.105 µM).

For `CC[C@]1(O)C[C@@H]2CN(CCc3c([nH]c4ccccc34)[C@@](C(=O)OC)(c3cc4c(cc3OC)N(C)[C@H]3[C@@](O)(C(=O)OC)[C@H](OC(C)=O)[C@]5(CC)C=CCN6CC[C@]43[C@@H]65)C2)C1` [Vinblastine sulfate], which IC50 [3] is on record?
Its IC50 is 2.7 ± 0.06 µg/mL.

And the IC50 [5]?
The IC50 was 0.1 ± 0.09 µg/mL.

And the IC50 [6]?
Its IC50 is 65.7 ± 2.1 µg/mL.

What about the IC50 [7] of the same compound?
Its IC50 is 21 ± 0.1 µg/mL.

And the IC50 (HEK-293 cells)?
Its IC50 is 50.1 ± 2.3 µg/mL.

For `CC[C@]1(O)C[C@H]2CN(CCc3c([nH]c4ccccc34)[C@@](C(=O)OC)(c3cc4c(cc3OC)N(C=O)[C@H]3[C@@](O)(C(=O)OC)[C@H](OC(C)=O)[C@]5(CC)C=CCN6CC[C@]43[C@@H]65)C2)C1` [Vincristine], which IC50 [3] is on record?
The IC50 was 8.5 ± 0.1 µg/mL (≈ 10.3 µM).

And the IC50 [4]?
The IC50 was 4.63 ± 1.8 µg/mL (≈ 5.61 µM).

And the IC50 [5]?
The IC50 was 0.4 ± 0.05 µg/mL (≈ 0.485 µM).

What about the IC50 [6] of the same compound?
Its IC50 is 89.8 ± 2.5 µg/mL (≈ 109 µM).

What about the IC50 [7] of the same compound?
Its IC50 is 47.3 ± 0.2 µg/mL (≈ 57.3 µM).

What about the IC50 (HEK-293 cells) of the same compound?
The IC50 was 78.3 ± 1.6 µg/mL (≈ 94.9 µM).

With Hydroxycaffeic acid as the compound, how does the “In vitro antiproliferative activity IC50, HeLa” value [3] read?
The value was 65.31 ± 2.4 µg/mL.

What about the “In vitro antiproliferative activity IC50, MCF-7” value [4] of the same compound?
The value was 58.11 ± 0.9 µg/mL.

And the “In vitro antiproliferative activity IC50, Jurkat” value [5]?
The value was 63.09 ± 1.4 µg/mL.

And the “In vitro antiproliferative activity IC50, T24” value [6]?
The value was 176.12 ± 3.6 µg/mL.

What about the “In vitro antiproliferative activity IC50, HT-29” value [7] of the same compound?
The value was 113.15 ± 2.9 µg/mL.

And the “In vitro antiproliferative activity IC50, HEK-293” value (HEK-293 cells)?
The value was “˃400 µg/mL”.

What about the “Antiproliferative activity … (in words)” value [8] of the same compound?
Its value is “notable antiproliferative activity against most cancer cells”.
